Laboratory results taken from US5397774A, “Pyrazolopyrimidine and pyrimidinyl bisphosphonic esters as anti-inflammatories” (The Upjohn Company, priority 1993, dated 1995).
Structures can show the parent of a compound that is named as a salt.

Test system: DTH granuloma (DTH GRA) lesion in mBSA-sensitized mice
Experiment: Delayed Type Hypersensitivity Granuloma Assay (DTH GRA) model for inflammation
Type: in vivo, mouse
Details: Mus musculus, 216 h, Table 2, Formula 2 compounds; for inhibition in vivo at 10 mg/kg: po, 10 mg/kg PO, mouse DTH granuloma excised after nine days
Experimental: This assay is described by Dunn, C.
Briefly, mBSA-sensitized mice have a DTH granuloma (DTH GRA) lesion induced by subcutaneously implanting a mBSA-soaked filter which is excised after nine days. Compounds are administered to the mice to determine their effect on the lesions. The results are recorded as percent inhibition. […] Inhibition of 10 to 20% is considered to indicate anti-granuloma activity.
Again, as in Table 1, the results are recorded as percent inhibition. […] Inhibition of 10 to 20% is considered to indicate anti-granuloma activity. […]

| SMILES | inhibition in vivo at 10 mg/kg [%] | inhibition in vivo at 1 mg/kg (tested at 1 mg/kg, PO) [%] |
| --- | --- | --- |
| CCOP(=O)(OCC)C(CCc1nc(-c2ccccc2)cc(=O)n1C)P(=O)(OCC)OCC [p, (3-(2-(3-Methyl-4-oxo-6-phenyl-4(3H)-pyrimidinyl))-propylidine)bisphosphonic acid tetraethyl ester] | 60 | – |
| Cn1c(CCC(P(=O)(O)O)P(=O)(O)O)nc(-c2ccccc2)cc1=O [q, (3-(2-(3-Methyl-4-oxo-6-phenyl-4(3H)-pyrimidinyl))-propylidine)bisphosphonic acid disodium salt] | – | 57 |
| CCOP(=O)(OCC)C(CCc1nc(-c2ccccc2)cc(=O)n1Cc1ccccc1)P(=O)(OCC)OCC [r, (3-(2-(3-Benzyl-4-oxo-6-phenyl-4(3H)-pyrimidinyl))-propylidine)bisphosphonic acid tetraethyl ester] | 17 | – |
| CCOP(=O)(O)C(CCc1nc(-c2ccccc2)cc(=O)n1C)P(=O)(OCC)OCC (centres unmarked) [rr, (3-(2-(3-Methyl-4-oxo-6-phenyl-4(3H)-pyrimidinyl))-propylidine)bisphosphonic acid triethyl ester sodium salt] | 50 | – |
| CCOP(=O)(OCC)C(CCc1nc(-c2cccc(F)c2)cc(=O)n1C)P(=O)(OCC)OCC [s, (3-(2-(3-Methyl-4-oxo-6-(3-fluoro-phenyl)-4(3H)-pyrimidinyl))-propylidine)bisphosphonic acid tetraethyl ester] | 32 | – |
| C=CCn1c(CCC(P(=O)(OCC)OCC)P(=O)(OCC)OCC)nc(-c2ccccc2)cc1=O [t, (3-(2-(3-Allyl-4-oxo-6-phenyl-4(3H)-pyrimidinyl))-propylidine)bisphosphonic acid tetraethyl ester] | 7 | – |
| CCOP(=O)(OCC)C(CCc1nc(-c2cccc(C)c2)cc(=O)n1C)P(=O)(OCC)OCC [v, (3-(2-(3-Methyl-4-oxo-6-(3-methyl-phenyl)-4(3H)-pyrimidinyl))-propylidine)bisphosphonic acid tetraethyl ester] | 40 | – |
| CCOP(=O)(OCC)C(CCc1nc(-c2cccc(OC)c2)cc(=O)n1C)P(=O)(OCC)OCC [w, (3-(2-(3-Methyl-4-oxo-6-(3-methoxy-phenyl)-4(3H)-pyrimidinyl))-propylidine) bisphosphonic acid tetraethyl ester] | 13 | – |
| CCOP(=O)(OCC)C(CCc1nc(-c2cccc(C(F)(F)F)c2)cc(=O)n1C)P(=O)(OCC)OCC [x, (3-(2-(3-Methyl-4-oxo-6-(3-trifluoromethyl-phenyl)-4(3H)-pyrimidinyl))propylidine)bisphosphonic acid tetraethyl ester] | 6 | – |
| CCOP(=O)(OCC)C(CCc1nc(-c2ccccc2)c(Br)c(=O)n1C)P(=O)(OCC)OCC [y, (3-(2-(3-Methyl-4-oxo-5-bromo-6-phenyl-4(3H)-pyrimidinyl))-propylidine)bisphosphonic acid tetraethyl ester] | 7 | – |
| COP(=O)(OC)C(CCc1nc(-c2ccccc2)cc(=O)n1C)P(=O)(OC)OC [z, (3-(2-(3-Methyl-4-oxo-6-phenyl-4(3H)-pyrimidinyl))-propylidine)bisphosphonic acid tetramethyl ester] | 36 | – |
